Assay results taken from US20080227724A1, “Anti-Inflammatory Agents” (CAMBRIDGE UNIVERSITY TECHNICAL SERVICES LIMITED, priority 2003, published 2008).
Bridge positions count the residues as written; N and C are the ends. Square brackets hold non-standard residues; d marks the D form. Ends that are not written are not given here.

Experiments:
[1] = system: chemokine-induced migration; assay: Chemokine-induced leukocyte migration in vitro (prior art); type: cell-based; details: parental molecule (S)-3-(undec-10-enoyl)-aminoglutarimide
[2] = type: in vitro ADME, human
Text: As an approach to identifying such stable analogs, various derivatives of (S)-3-(undec-10-enoyl)-aminoglutarimide have been tested for their stability in serum.

TNF-alpha = assay: Sub-lethal LPS-induced endotoxemia model, circulating TNF-alpha; type: in vivo, CD-1 mice; details: for block of TNF-alpha stimulation: at a suitable dose
Procedure: The anti-inflammatory activity of the compounds of the invention was determined in vivo using a sub-lethal LPS-induced endotoxemia model. Adult male CD-1 mice (n=6 per group) were pretreated with various agents (vehicle, compounds of the invention or positive control agents such as the steroid dexamethasone) by sub-cutaneous injection 30 minutes prior to an acute inflammatory challenge with 750 μg of bacterial lipopolysaccharide (from E. Coli 0111:B4; Sigma catalog #L-4130) via the intraperitoneal route. The vehicle in each case was 0.6% DMSO, 1% carboxymethyl cellulose, or alternatively 1% carboxymethylcellulose alone. For some of the compounds, this formulation results in a finely divided suspension or slurry rather than a clear solution. Two hours after LPS challenge, the animals were sacrificed and blood was drawn by cardiac puncture. The level of the pro-inflammatory cytokine TNF-alpha was determined using the Quantikine M ELISA (R&D Systems) for murine TNF-alpha, and reported as the mean ±standard error for each group.
By 2 hours after the LPS challenge, this had increased by more than 1,000 fold to an average of 20,000 pg/ml, representing a sensitive index of inflammatory activation. Pre-treatment with known anti-inflammatory drugs (such as the steroid dexamethasone) reduced the stimulation of TNF-alpha by up to 85-95%, depending on the dose given.
In a separate series of experiments, the compounds of the invention were administered to animals as an oral suspension, formulated in the same way as for the sub-cutaneous dosing experiments, followed 1 hour later with the LPS challenge exactly as described above. […] All five compounds were maximally active at a dose below 30 mg/kg.

[3] = system: MCP-1 induced THP-1 cell migration; assay: Inhibition of MCP-1 induced leukocyte migration (transwell migration assay); type: cell-based, human; details: inhibition of MCP-1 induced THP-1 cell migration, dose-response curves
Procedure: In principle, this assay consists of two chambers separated by a porous membrane. The chemoattractant is placed in the lower compartment and the cells are placed in the upper compartment. After incubation for a period at 37° C. the cells move towards the chemoattractant, and the number of cells in the lower compartment is proportional to the chemoattractant activity (relative to a series of controls). The THP-1 cell line (European Cell culture Collection) were used as the leukocyte cell population. The following procedure is used for testing the invention compounds for MCP-1 induced leukocyte migration: First, the cell suspension to be placed in the upper compartment is prepared. The THP-1 cells are pelleted by centrifugation (770×g; 4 mins) and washed with Geys Balanced Salt Solution with 1 mg/ml BSA (GBSS+BSA). This wash is then repeated, and the cells repelleted before being resuspended in a small volume of GBSS+BSA for counting, for example using a standard haemocytometer. The volume of GBSS+BSA is then adjusted depending on the number of cells present so that the cells are at final density of 4.45×10^6 cells per ml of GBSS+BSA. […] The number of cells migrated into the lower chamber under each condition can then be determined by a number of methods, including direct counting, labelling with fluorescent or radioactive markers or through the use of a vital dye. […]

[4] = cited from earlier work
[5] = oral suspension 1 hour before LPS
[6] = sub-cutaneous injection 30 minutes prior to LPS

With `C=CCCCCCCCCC(=O)[C@@H]1CCCNC1=O` [(S)-3-(undec-10-enoyl)-tetrahydropyridin-2-one] the “potency compared with the parental molecule” value [1] was “considerably reduced potency” and the “time completely stable in human serum” value ([2]; human, 7 days) was “at least 7 days”.
With `C=CCCCCCCCCC(=O)N[C@H]1CCC(=O)NC1=O` [NR58,4, (S)-3-(undec-10-enoyl)-aminoglutarimide] the “stability of the aminoglutarimide ring in serum” value [2] was “susceptible to enzymatic ring opening in serum”.
With `C[C@@H]1C[C@H]2[C@@H]3CCC4=CC(=O)C=C[C@]4(C)[C@@]3(F)[C@@H](O)C[C@]2(C)[C@@]1(O)C(=O)CO` [dexamethasone, reference compound] the “reduction of the stimulation of TNF-alpha” value (TNF-alpha; pre-treatment, 2 hours after LPS challenge, depending on the dose given) was 85-95%.
With “(R)-3-hexadecanoylamino-caprolactam [Example 7]” the “block of TNF-alpha stimulation” value (TNF-alpha; [5]) was “able to block TNF-alpha stimulation” and the “block of TNF-alpha stimulation” value (TNF-alpha; [6]) was “block TNF-alpha stimulation to a similar extent to dexamethasone”.
For “(S)-3-(2′,2′-Dimethyl-propionyl)amino-caprolactam [Example 20]”, the “block of TNF-alpha stimulation” value (TNF-alpha; [5]) was “able to block TNF-alpha stimulation” and the “block of TNF-alpha stimulation” value (TNF-alpha; [6]) was “block TNF-alpha stimulation to a similar extent to dexamethasone”.
For “(S)-3-(2′,2′-dimethyl-dodecanoyl)amino-caprolactam [Example 12]”, the “(S)-enantiomer more active than the (R)-enantiomer” value [3] was 10-50 fold, the “block of TNF-alpha stimulation” value (TNF-alpha; [5]) was “able to block TNF-alpha stimulation” and the “block of TNF-alpha stimulation” value (TNF-alpha; [6]) was “block TNF-alpha stimulation to a similar extent to dexamethasone”.
With “(S)-(Z)-3-(hexadec-9-enoyl)amino-caprolactam [Example 9]” the “block of TNF-alpha stimulation” value (TNF-alpha; [5]) was “able to block TNF-alpha stimulation” and the “block of TNF-alpha stimulation” value (TNF-alpha; [6]) was “block TNF-alpha stimulation to a similar extent to dexamethasone”.
For “(S)-(Z)-3-(octadec-9-enoyl)amino-caprolactam [Example 10]”, the “block of TNF-alpha stimulation” value (TNF-alpha; [5]) was “able to block TNF-alpha stimulation” and the “block of TNF-alpha stimulation” value (TNF-alpha; [6]) was “block TNF-alpha stimulation to a similar extent to dexamethasone”.
In the case of “c(DCys-DGln-DIle-DTrp-DLys-DGln-DLys-DPro-DAsp-DLeu-DCys)-NH2 ([dC][dQ][dI][dW][dK][dQ][dK][dP][dD][dL][dC]-NH2; disulfide 1-11 (inferred)) [NR58-3.14.3]”, the “half-life period of clearance from blood plasma” value ([4]; after intravenous injection) is given as “less than 30 minutes” and the oral bioavailability ([4]; in vivo, po) is given as “not orally bioavailable”.
